Experimental data from patent publication US7704696B2, “Screening of compounds for OCTN2 transporter activity” (XenoPort, Inc., priority 2005, dated 2010).

Columns and labels:
hOCTN2 [1] = target: T1, hOCTN2 (Homo sapiens, UniProt O76082); experiment: hOCTN2 competition uptake assay (3H-carnitine uptake into CHO-TREx-hOCTN2 cells); assay type: cell-based; set-up: expressed in transfected cells; host or cells: CHO-TREx cells (CHO-TREx-OCTN2 inducible cell line)
T1 sequence (O76082 1-557): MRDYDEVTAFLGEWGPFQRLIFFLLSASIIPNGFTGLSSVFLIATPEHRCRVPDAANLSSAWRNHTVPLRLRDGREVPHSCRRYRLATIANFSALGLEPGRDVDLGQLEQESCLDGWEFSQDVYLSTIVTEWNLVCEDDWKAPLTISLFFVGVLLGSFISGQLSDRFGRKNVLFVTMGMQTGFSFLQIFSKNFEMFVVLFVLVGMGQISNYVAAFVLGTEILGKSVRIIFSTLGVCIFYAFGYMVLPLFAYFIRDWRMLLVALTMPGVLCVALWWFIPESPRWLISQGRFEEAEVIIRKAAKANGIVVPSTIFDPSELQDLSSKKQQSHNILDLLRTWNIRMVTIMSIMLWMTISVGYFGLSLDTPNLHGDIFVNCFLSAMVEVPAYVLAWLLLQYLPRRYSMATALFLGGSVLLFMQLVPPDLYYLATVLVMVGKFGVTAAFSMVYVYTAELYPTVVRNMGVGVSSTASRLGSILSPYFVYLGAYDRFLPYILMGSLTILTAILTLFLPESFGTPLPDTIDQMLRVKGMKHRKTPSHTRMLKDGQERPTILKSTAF
Description: A modified competition uptake assay was developed to determine the ability of a test compound(s) to inhibit the uptake of radiolabeled substrates into CHO-TREx-hOCTN2 cells induced to over-express hOCTN2. The results are stated as affinities (IC50).
The competition uptake assay was prepared as follows: Compounds were prepared for assay by diluting a 100 mM stock concentration (in DMSO) to the appropriate working concentration. Typically, seven-point dose response curves were prepared starting at a final assay concentration of 1 mM and carrying out three-fold dilutions. […]
Scintillation fluid (200 μl) (Optiphase Supermix (Perkin Elmer) was added to each well, and the plate was covered with a 96-well adhesive plate cover and placed on a shaker for 10 minutes. The plates were counted on a 96-well plate scintillation counter for 60 sec/well. The data were analyzed using a sigmoidal dose response curve-fitting program (Prism, GraphPad, Inc, San Diego, Calif.; equation: one-site competition).
FIG. 7 depicts the results of a competition experiment using CHO-TREx-OCTN2 cells. ^3H-carnitine was used as the substrate and unlabeled carnitine was used as the competitor. […] Non-specific uptake was determined by measuring the uptake into cells not induced to express the transporter (“no tet”). […]

hOCTN2 [2] = target: T1, hOCTN2; experiment: hOCTN2 direct uptake assay (LC-MS-MS, CHO-TREx-hOCTN2 cells); assay type: cell-based; set-up: expressed in transfected cells; host or cells: CHO-TREx cells (CHO-TREx-OCTN2 inducible cell line); details: CHO-TREx-hOCTN2 cells induced to express hOCTN2, specific uptake
Description: (§1) A modified direct uptake assay was developed to determine the ability of test compounds to be transported into CHO-TREx cells induced to over-express hOCTN2. Four concentrations (bracketing the affinity as measured by competition assays) per compound were routinely tested. Non-specific uptake was determined by measuring the uptake into cells not induced to express the transporter (“no tet”).
(§2) The direct uptake assays were prepared as follows: Compounds were prepared for assay by diluting a 100 mM stock concentration (in DMSO or water, depending on compound solubility) to the appropriate working concentration. Typically, four concentrations bracketing the IC50 were tested. The highest test concentration for each compound was made in an Eppendorf tube and diluted into HBSS. The samples were robustly vortexed and centrifuged for 10 minutes at 13,200 rpm to spin down any precipitate. The supernatant from these samples (˜150 μl/well) was carefully removed and placed into six wells of row A (cmpd 1: A1-6; cmpd 2: A7-12) or row E (cmpd 3: E1-6; cmpd 4: E7-12) of a 96-well polypropylene “compound” plate. Three additional 2-fold dilutions were made in the subsequent rows (B-D or […]) in HBSS. […]

hOCTN2 [3] = target: T1, hOCTN2; experiment: Oocyte uptake assay, oocytes injected with OCTN2 cRNA; assay type: cell-based; set-up: expressed in transfected cells; host or cells: Xenopus oocytes injected with OCTN2 cRNA; details: Xenopus oocytes
PgP = target: T2, PgP (Homo sapiens, UniProt P08183); experiment: Transwell monolayer efflux assay, MDCK cells with TREx-PgP; assay type: cell-based
T2 construct: expressed in transfected cells; host or cells: MDCK cells
Description: Transwell monolayer efflux assays can be performed by transfecting MDCK cells with the tetracycline-inducible TREx-PgP expression vector. The cells optionally can be transfected with a nucleic acid encoding the transporter of interest. The transfected cells are seeded on polycarbonate filter membranes in transwell dishes and grown for 3-5 days, yielding a polarized monolayer with tight junctions between cells.

[4] = substrate: C[N+](C)(C)CC(O)CC(=O)[O-]; experiment: hOCTN2 direct uptake assay (LC-MS-MS, CHO-TREx-hOCTN2 cells); assay type: cell-based, human; details: other: CHO-TREx-hOCTN2 cells induced to express hOCTN2, specific uptake
Description: as §1, §2

[5] = 2.5 nM 3H-vinblastine, in the presence of 250 μM verapamil

T2 sequence (P08183 whole entry): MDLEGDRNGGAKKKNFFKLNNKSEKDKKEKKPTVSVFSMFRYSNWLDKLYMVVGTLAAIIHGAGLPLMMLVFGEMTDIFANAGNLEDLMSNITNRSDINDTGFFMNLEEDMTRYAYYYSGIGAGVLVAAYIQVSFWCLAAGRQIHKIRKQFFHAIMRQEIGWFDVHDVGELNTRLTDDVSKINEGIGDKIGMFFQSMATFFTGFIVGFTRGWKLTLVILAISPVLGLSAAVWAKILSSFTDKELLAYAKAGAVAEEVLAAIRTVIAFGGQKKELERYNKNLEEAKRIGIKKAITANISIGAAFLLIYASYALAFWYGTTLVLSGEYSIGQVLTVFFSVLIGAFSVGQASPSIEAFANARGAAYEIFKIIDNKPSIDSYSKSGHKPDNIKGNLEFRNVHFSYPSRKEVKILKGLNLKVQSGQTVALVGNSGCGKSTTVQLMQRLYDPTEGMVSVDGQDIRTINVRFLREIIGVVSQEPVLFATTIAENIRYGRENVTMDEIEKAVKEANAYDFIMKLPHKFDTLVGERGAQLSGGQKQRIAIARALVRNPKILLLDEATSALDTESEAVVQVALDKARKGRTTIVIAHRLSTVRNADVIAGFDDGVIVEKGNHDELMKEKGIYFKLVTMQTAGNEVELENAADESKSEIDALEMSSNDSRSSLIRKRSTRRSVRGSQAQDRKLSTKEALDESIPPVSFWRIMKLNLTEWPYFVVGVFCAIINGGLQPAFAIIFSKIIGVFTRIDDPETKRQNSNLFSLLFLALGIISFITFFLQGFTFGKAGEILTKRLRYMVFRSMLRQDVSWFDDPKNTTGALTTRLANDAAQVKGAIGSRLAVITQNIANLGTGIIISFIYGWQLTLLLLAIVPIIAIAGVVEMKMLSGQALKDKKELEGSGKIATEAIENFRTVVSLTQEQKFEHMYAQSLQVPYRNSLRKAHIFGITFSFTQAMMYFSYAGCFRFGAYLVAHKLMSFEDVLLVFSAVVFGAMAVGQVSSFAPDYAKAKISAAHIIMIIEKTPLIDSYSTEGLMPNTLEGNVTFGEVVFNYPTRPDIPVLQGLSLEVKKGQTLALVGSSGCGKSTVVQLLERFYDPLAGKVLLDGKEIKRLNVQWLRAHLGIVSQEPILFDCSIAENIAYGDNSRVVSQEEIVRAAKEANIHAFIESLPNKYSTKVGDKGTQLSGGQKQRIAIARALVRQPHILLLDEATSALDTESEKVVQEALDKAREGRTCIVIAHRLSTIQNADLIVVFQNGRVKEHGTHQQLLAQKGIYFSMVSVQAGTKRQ

## C[N+](C)(C)CC(O)CC(=O)[O-] (centres unmarked) [Carnitine, carnitine]
hOCTN2 [1]; cells induced to express OCTN2, unlabeled carnitine as competitor
  uptake of labeled carnitine with increasing unlabeled carnitine: uptake of labeled carnitine decreased as the concentration of unlabeled carnitine increased
hOCTN2 [1]; inhibition of 3H-carnitine uptake, CHO-TREx-hOCTN2 cells induced to express hOCTN2
  IC50: 6.3 µM
hOCTN2 [2]
  Direct Uptake Vmax: 7.7 pmol/min/well
hOCTN2 [3]
  3H-carnitine uptake in OCTN2-expressing oocytes versus noninjected controls: higher levels of ^3H-carnitine uptake than noninjected controls

## CC[C@]1(O)C[C@@H]2CN(CCc3c([nH]c4ccccc34)[C@@](C(=O)OC)(c3cc4c(cc3OC)N(C)[C@H]3[C@@](O)(C(=O)OC)[C@H](OC(C)=O)[C@]5(CC)C=CCN6CC[C@]43[C@@H]65)C2)C1 [^3H-vinblastine, vinblastine]
PgP; [5]
  apical to basolateral transport: strongly increased
  basolateral to apical transport: strongly decreased
PgP; concluded from transport with and without verapamil
  PgP substrate status: substrate of PgP

B1: hOCTN2 (Homo sapiens) (protein)
chain: MRDYDEVTAFLGEWGPFQRLIFFLLSASIIPNGFTGLSSVFLIATPEHRCRVPDAANLSSAWRNHTVPLRLRDGREVPHSCRRYRLATIANFSALGLEPGRDVDLGQLEQESCLDGWEFSQDVYLSTIVTEWNLVCEDDWKAPLTISLFFVGVLLGSFISGQLSDRFGRKNVLFVTMGMQTGFSFLQIFSKNFEMFVVLFVLVGMGQISNYVAAFVLGTEILGKSVRIIFSTLGVCIFYAFGYMVLPLFAYFIRDWRMLLVALTMPGVLCVALWWFIPESPRWLISQGRFEEAEVIIRKAAKANGIVVPSTIFDPSELQDLSSKKQQSHNILDLLRTWNIRMVTIMSIMLWMTISVGYFGLSLDTPNLHGDIFVNCFLSAMVEVPAYVLAWLLLQYLPRRYSMATALFLGGSVLLFMQLVPPDLYYLATVLVMVGKFGVTAAFSMVYVYTAELYPTVVRNMGVGVSSTASRLGSILSPYFVYLGAYDRFLPYILMGSLTILTAILTLFLPESFGTPLPDTIDQMLRVKGMKHRKTPSHTRMLKDGQERPTILKSTAF
notes: expressed in transfected cells; host or cells: CHO-TREx cells (CHO-TREx-OCTN2 inducible cell line)
[4]
  Km: 300 µM
